Measurements reported in paper PMC4106271 (Journal of Medicinal Chemistry, 2014).

Key:
[1] = target: T1, α5β2γ2S GABAA receptors (Homo sapiens, UniProt P31644+P47870); experiment: Two-microelectrode voltage clamp, IGABA modulation, α5β2γ2S; format: cell-based; settings: for nH: Hill coefficient
T1 construct: expressed in transfected cells; host or cells: Xenopus laevis oocytes injected with cRNA (pCMV cDNA templates)
Protocol: (§1) Preparation of stage V–VI oocytes from X. laevis and synthesis of capped runoff poly(A) cRNA transcripts from linearized cDNA templates (pCMV vector) was performed as previously described.[49] […] Follicle membranes from isolated oocytes were enzymatically digested with 2 mg/mL collagenase (type 1A, Sigma–Aldrich, Vienna, Austria).
(§2) Selected oocytes were injected with 10–50 nL of DEPC-treated water (diethyl pyrocarbonate, Sigma, Vienna, Austria) containing the different GABAA cRNAs at a concentration of approximately 300–3000 pg·nL^–1·subunit^–1.
(§3) To ensure expression of the γ2S subunit in the case of α1/2/3/5β2/3γ2S receptors, cRNAs were mixed in a ratio of 1:1:10. […] The amount of cRNAs was determined by means of a NanoDrop ND-1000 (Kisker-Biotech, Steinfurt, Germany).
(§4) Oocytes were stored at +18 °C in modified ND96 solution (90 mM NaCl, 1 mM CaCl2, 1 mM KCl, 1 mM MgCl2·6H2O, and 5 mM HEPES [4-(2-hydroxyethyl)-1-piperazineethanesulfonic acid], pH 7.4, all from Sigma–Aldrich, Vienna, Austria).
(§5) Chloride currents through GABAA receptors (IGABA) were measured at room temperature (+21 ± 1 °C) by means of a two-microelectrode voltage clamp technique making use of a Turbo TEC-05X amplifier (npi electronic, Tamm, Germany). IGABA were elicited at a holding potential of –70 mV. Data acquisition was carried out by means of an Axon Digidata 1322A interface using pCLAMP v.10 (Molecular Devices, Sunnyvale, CA). The modified ND96 solution was used as bath solution.
(§6) GABA and the studied derivatives were applied by means of the ScreeningTool (npi electronic, Tamm, Germany) fast perfusion system as described previously.[50] To elicit IGABA, the chamber was perfused with 120 μL of GABA- or compound-containing solution at a volume rate of 300 μL/s.[34] Care was taken to account for possible slow recovery from increasing levels of desensitization in the presence of high drug concentrations. The duration of washout periods was therefore extended from 1.5 min (<10 μM compounds) to 30 min (≥10 μM compounds). Oocytes with maximal current amplitudes >3 μA were discarded to exclude voltage clamp errors.
(§7) Stimulation of chloride currents by modulators of the GABAA receptor was measured at a GABA concentration eliciting between 3% and 7% of the maximal current amplitude (EC3–7). The GABA EC3–7 was determined for each oocyte individually. Enhancement of the chloride current was defined as (IGABA+compd/IGABA) – 1, where IGABA+compd is the current response in the presence of a given compound and IGABA is the control GABA current. IGABA-max reflects the maximal IGABA enhancement. […] Statistical significance was calculated by paired Student t-test with a confidence interval of <0.05.

[2] = target: T2, α4β2γ2S GABAA receptors (Homo sapiens, UniProt P47870+P48169); experiment: Two-microelectrode voltage clamp, IGABA modulation, α4β2γ2S; format: cell-based; settings: for nH: Hill coefficient
T2 construct: expressed in transfected cells; host or cells: Xenopus laevis oocytes injected with cRNA (pCMV cDNA templates)
T2 sequence (P48169 36-554): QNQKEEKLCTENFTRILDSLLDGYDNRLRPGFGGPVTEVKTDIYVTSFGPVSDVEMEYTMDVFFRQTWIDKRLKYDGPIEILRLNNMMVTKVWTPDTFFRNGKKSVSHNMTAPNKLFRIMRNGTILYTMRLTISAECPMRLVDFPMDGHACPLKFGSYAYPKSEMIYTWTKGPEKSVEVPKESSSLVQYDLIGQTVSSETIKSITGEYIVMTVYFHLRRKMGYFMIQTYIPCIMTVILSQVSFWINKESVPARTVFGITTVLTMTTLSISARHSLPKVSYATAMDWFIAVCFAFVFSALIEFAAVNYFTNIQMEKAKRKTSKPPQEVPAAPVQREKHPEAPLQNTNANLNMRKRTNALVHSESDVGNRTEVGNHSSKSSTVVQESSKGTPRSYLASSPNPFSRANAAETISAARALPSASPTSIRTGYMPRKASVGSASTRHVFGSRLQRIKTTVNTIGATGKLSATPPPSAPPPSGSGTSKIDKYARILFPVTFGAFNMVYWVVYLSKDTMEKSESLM
T2 sequence (P47870 26-512): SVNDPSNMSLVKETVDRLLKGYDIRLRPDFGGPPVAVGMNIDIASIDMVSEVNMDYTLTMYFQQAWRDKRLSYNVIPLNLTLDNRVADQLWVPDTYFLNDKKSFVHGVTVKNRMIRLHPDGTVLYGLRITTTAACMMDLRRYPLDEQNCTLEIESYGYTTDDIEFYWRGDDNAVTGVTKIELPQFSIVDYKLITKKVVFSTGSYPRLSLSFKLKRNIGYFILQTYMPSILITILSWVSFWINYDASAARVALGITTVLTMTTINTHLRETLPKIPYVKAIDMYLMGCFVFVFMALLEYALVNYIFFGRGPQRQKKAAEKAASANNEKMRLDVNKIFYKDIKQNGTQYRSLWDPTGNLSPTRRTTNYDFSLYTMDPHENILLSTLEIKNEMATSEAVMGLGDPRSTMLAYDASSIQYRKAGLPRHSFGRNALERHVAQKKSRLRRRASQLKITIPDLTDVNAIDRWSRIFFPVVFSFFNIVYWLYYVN
T2 sequence (P18507 40-467 isoform P18507-1 partner limits assumed): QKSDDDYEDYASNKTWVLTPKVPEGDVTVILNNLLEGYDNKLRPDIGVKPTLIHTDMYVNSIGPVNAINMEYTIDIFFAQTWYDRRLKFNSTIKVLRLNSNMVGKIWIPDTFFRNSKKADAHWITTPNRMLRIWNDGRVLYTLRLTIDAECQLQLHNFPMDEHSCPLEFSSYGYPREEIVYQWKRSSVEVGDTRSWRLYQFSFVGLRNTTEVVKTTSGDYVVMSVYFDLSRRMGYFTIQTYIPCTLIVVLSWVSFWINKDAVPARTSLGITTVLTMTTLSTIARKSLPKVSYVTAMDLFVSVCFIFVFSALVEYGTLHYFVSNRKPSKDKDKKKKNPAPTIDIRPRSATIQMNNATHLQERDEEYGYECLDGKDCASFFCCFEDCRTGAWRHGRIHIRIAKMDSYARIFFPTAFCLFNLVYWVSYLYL
Protocol: as §1, §2, §3, §4, §5, §6, §7

[3] = tested on: male C57BL/6N mice; experiment: Open field test; format: in vivo; settings: ip, total ambulation
Protocol: Male mice (C57BL/6N) were obtained from Charles River Laboratories (Sulzfeld, Germany). For maintenance, mice were group-housed (maximum five mice per type IIL cage) with free access to food and water. At least 24 h before the commencement of experiments, mice were transferred to the testing facility, where they were given free access to food and water. The temperature in the maintenance and testing facilities was 23 ± 1 °C; the humidity was 40–60%; a 12 h light–dark cycle was in operation (lights on from 07:00 to 19:00). Only male mice aged 3–6 months were tested.
Compounds were applied by intraperitoneal (ip) injection 30 min before each test. Testing solutions were prepared in a solvent composed of 0.9% NaCl solution with 10% dimethyl sulfoxide (DMSO) and 3% Tween 80. […] All doses are indicated as milligrams per kilogram of body weight of the animal.
Ambulation was tested over 10 min in a 50 × 50 cm flexfield box equipped with infrared rearing detection. Illumination was set to 150 Lux. The animals’ explorative behavior was analyzed by use of the ActiMot 2 equipment and software (TSE-systems, Bad Homburg, Germany). Arenas were subdivided into border (up to 8 cm from wall), center (20 × 20 cm, 16% of total area), and intermediate area according to the recommendations of EMPRESS (European Mouse Phenotyping Resource of Standardised Screens; http://empress.har.mrc.ac.uk).

T1 sequence (P31644 32-462): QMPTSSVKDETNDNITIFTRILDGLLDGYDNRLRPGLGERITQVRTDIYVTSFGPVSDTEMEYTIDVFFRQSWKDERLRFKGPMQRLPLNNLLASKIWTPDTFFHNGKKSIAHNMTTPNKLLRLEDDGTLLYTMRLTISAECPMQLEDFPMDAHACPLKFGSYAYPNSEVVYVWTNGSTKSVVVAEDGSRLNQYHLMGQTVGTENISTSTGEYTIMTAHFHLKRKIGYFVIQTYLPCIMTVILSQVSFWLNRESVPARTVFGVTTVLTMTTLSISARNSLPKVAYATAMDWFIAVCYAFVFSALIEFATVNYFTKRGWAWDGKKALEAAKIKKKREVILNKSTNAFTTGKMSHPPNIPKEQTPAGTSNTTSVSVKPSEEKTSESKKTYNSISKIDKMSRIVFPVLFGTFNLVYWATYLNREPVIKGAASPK
T1 sequence (P47870 26-512): as the sequence (P47870 26-512) above
T1 sequence (P18507 40-467 isoform P18507-1 partner limits assumed): as the sequence (P18507 40-467 isoform P18507-1 partner limits assumed) above

SMILES	EC50 [1] [µM]	nH [1]	EC50 [2] [µM]	nH [2]	sedation in the OF test [3]
CCCN(CCC)C(=O)/C=C/C=C/c1ccc2c(c1)OCO2 [Compound 23, (2E,4E)-5-(1,3-benzodioxol-5-yl)-N,N-dipropyl-2,4-pentadienamide]	61.9 ± 10.4	1.4 ± 0.1	34.7 ± 3.8	1.7 ± 0.1	little sedation
CCCCN(CCCC)C(=O)/C=C/C=C/c1ccc2c(c1)OCO2 [Compound 25, (2E,4E)-5-(1,3-Benzodioxol-5-yl)-N,N-dibutyl-2,4-pentadienamide]	17.2 ± 1.4	1.7 ± 0.2	56.7 ± 21	1.3 ± 0.3	little sedation
